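Interpolation was linear, between the two tested concentrations surrounding the appropriate level; five concentrations were tested over 48 hours in 96-well plates. Here, GI50 denotes the concentration required for 50% inhibition of growth. At the TGI there is no net growth.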
Experiments:
Assay in all cases: NCI tumour cell line growth inhibition, 48 h
HT29 colon = test system: HT29 colon
KM12 colon = test system: KM12 colon
DU-145 prostate = test system: DU-145 prostate
SR leukemia = test system: SR leukemia
M14 melanoma = test system: M14 melanoma
COLO 205 colon = test system: COLO 205 colon
HOP-92 NSCLC = test system: HOP-92 NSCLC
MALME-3M melanoma = test system: MALME-3M melanoma
HL-60(TB) leukemia = test system: HL-60(TB) leukemia
RXF 393 renal = test system: RXF 393 renal
SK-MEL-2 melanoma = test system: SK-MEL-2 melanoma
UACC-62 melanoma = test system: UACC-62 melanoma
K-562 leukemia = test system: K-562 leukemia
SNB-75 CNS = test system: SNB-75 CNS
CCRF-CEM leukemia = test system: CCRF-CEM leukemia
NCI-H226 lung = test system: NCI-H226 lung
BT-549 breast = test system: BT-549 breast
A498 renal = test system: A498 renal
MCF7 breast = test system: MCF7 breast
NCI/ADR-RES ovarian = test system: NCI/ADR-RES ovarian
UACC-257 melanoma = test system: UACC-257 melanoma
ACHN renal = test system: ACHN renal
CAKI-1 renal = test system: CAKI-1 renal
SF-295 CNS = test system: SF-295 CNS
HOP-62 NSCLC = test system: HOP-62 NSCLC
786-0 renal = test system: 786-0 renal
OVCAR-4 ovarian = test system: OVCAR-4 ovarian
SNB-19 CNS = test system: SNB-19 CNS
SF-539 CNS = test system: SF-539 CNS
RPMI-8226 leukemia = test system: RPMI-8226 leukemia
PC-3 prostate = test system: PC-3 prostate
MDA-MB-231 breast = test system: MDA-MB-231 breast
T-47D breast = test system: T-47D breast
HS 578T breast = test system: HS 578T breast
MOLT-4 leukemia = test system: MOLT-4 leukemia
SF-268 CNS = test system: SF-268 CNS
UO-31 renal = test system: UO-31 renal
U251 CNS = test system: U251 CNS
MDA-MB-435 = test system: MDA-MB-435
SK-MEL-5 melanoma = test system: SK-MEL-5 melanoma
SN12C renal = test system: SN12C renal
OVCAR-5 ovarian = test system: OVCAR-5 ovarian
HCT-15 colon = test system: HCT-15 colon
LOX IMVI melanoma = test system: LOX IMVI melanoma
NCI-H23 lung = test system: NCI-H23 lung
HCC-2998 colon = test system: HCC-2998 colon
SK-OV-3 ovarian = test system: SK-OV-3 ovarian
HCT-116 colon = test system: HCT-116 colon
NCI-H460 lung = test system: NCI-H460 lung
A549 NSCLC = test system: A549 NSCLC
NCI-H522 lung = test system: NCI-H522 lung
SK-MEL-28 melanoma = test system: SK-MEL-28 melanoma
SW-620 colon = test system: SW-620 colon

COc1ccc2c(c1)c(CC(=O)[Se]CCC#N)c(C)n2C(=O)c1ccc(Cl)cc1
GI50 (HT29 colon): 2.45 µM
TGI (HT29 colon): 7.39 µM
GI50 (KM12 colon): 4.13 µM
TGI (KM12 colon): 31 µM
GI50 (DU-145 prostate): 2.26 µM
TGI (DU-145 prostate): 5.93 µM
GI50 (SR leukemia): 3.78 µM
TGI (SR leukemia): > 100 µM
GI50 (M14 melanoma): 1.39 µM
TGI (M14 melanoma): 3.04 µM
GI50 (COLO 205 colon): 2.26 µM
TGI (COLO 205 colon): 4.67 µM
GI50 (HOP-92 NSCLC): 1.5 µM
TGI (HOP-92 NSCLC): 3.11 µM
GI50 (MALME-3M melanoma): 1.7 µM
TGI (MALME-3M melanoma): 4.36 µM
GI50 (HL-60(TB) leukemia): 1.2 µM
TGI (HL-60(TB) leukemia): 6.25 µM
GI50 (RXF 393 renal): 1.52 µM
TGI (RXF 393 renal): 3.17 µM
GI50 (SK-MEL-2 melanoma): 2.39 µM
TGI (SK-MEL-2 melanoma): 5.43 µM
GI50 (UACC-62 melanoma): 1.94 µM
TGI (UACC-62 melanoma): 4.7 µM
GI50 (K-562 leukemia): 3.24 µM
TGI (K-562 leukemia): > 100 µM
GI50 (SNB-75 CNS): 1.5 µM
TGI (SNB-75 CNS): 3.72 µM
GI50 (CCRF-CEM leukemia): 2.43 µM
TGI (CCRF-CEM leukemia): > 100 µM
GI50 (NCI-H226 lung): 1.55 µM
TGI (NCI-H226 lung): 4.01 µM
GI50 (BT-549 breast): 1.71 µM
TGI (BT-549 breast): 3.35 µM
GI50 (A498 renal): 1.6 µM
TGI (A498 renal): 3.08 µM
GI50 (MCF7 breast): 2.56 µM
TGI (MCF7 breast): 9.7 µM
GI50 (NCI/ADR-RES ovarian): 2.18 µM
TGI (NCI/ADR-RES ovarian): 6.31 µM
GI50 (UACC-257 melanoma): 1.6 µM
TGI (UACC-257 melanoma): 3.46 µM
GI50 (ACHN renal): 2.93 µM
TGI (ACHN renal): 7.79 µM
GI50 (CAKI-1 renal): 1.93 µM
TGI (CAKI-1 renal): 3.5 µM
GI50 (SF-295 CNS): 1.8 µM
TGI (SF-295 CNS): 3.3 µM
GI50 (HOP-62 NSCLC): 1.77 µM
TGI (HOP-62 NSCLC): 3.46 µM
GI50 (786-0 renal): 1.92 µM
TGI (786-0 renal): 3.47 µM
GI50 (OVCAR-4 ovarian): 2.38 µM
TGI (OVCAR-4 ovarian): 6.94 µM
GI50 (SNB-19 CNS): 1.89 µM
TGI (SNB-19 CNS): 3.58 µM
GI50 (SF-539 CNS): 2.02 µM
TGI (SF-539 CNS): 4.36 µM
GI50 (RPMI-8226 leukemia): 2.51 µM
TGI (RPMI-8226 leukemia): 6.99 µM
GI50 (PC-3 prostate): 2.54 µM
TGI (PC-3 prostate): 7.35 µM
GI50 (MDA-MB-231 breast): 2.04 µM
TGI (MDA-MB-231 breast): 4.97 µM
GI50 (T-47D breast): 9.78 µM
TGI (T-47D breast): 38.8 µM
GI50 (HS 578T breast): 2.35 µM
TGI (HS 578T breast): 8.79 µM
GI50 (MOLT-4 leukemia): 2.9 µM
TGI (MOLT-4 leukemia): > 100 µM
GI50 (SF-268 CNS): 2.31 µM
TGI (SF-268 CNS): 5.07 µM
GI50 (UO-31 renal): 1.73 µM
TGI (UO-31 renal): 4.2 µM
GI50 (U251 CNS): 1.66 µM
TGI (U251 CNS): 3.11 µM
GI50 (MDA-MB-435): 1.75 µM
TGI (MDA-MB-435): 3.47 µM
GI50 (SK-MEL-5 melanoma): 2.05 µM
TGI (SK-MEL-5 melanoma): 4.18 µM
GI50 (SN12C renal): 2.49 µM
TGI (SN12C renal): 6.67 µM
GI50 (OVCAR-5 ovarian): 2.8 µM
TGI (OVCAR-5 ovarian): 8.87 µM
GI50 (HCT-15 colon): 2.17 µM
TGI (HCT-15 colon): 5.27 µM
GI50 (LOX IMVI melanoma): 1.54 µM
TGI (LOX IMVI melanoma): 3.96 µM
GI50 (NCI-H23 lung): 2.28 µM
TGI (NCI-H23 lung): 5.86 µM
GI50 (HCC-2998 colon): 3.61 µM
TGI (HCC-2998 colon): 12.8 µM
GI50 (SK-OV-3 ovarian): 3.62 µM
TGI (SK-OV-3 ovarian): 6.33 µM
GI50 (HCT-116 colon): 1.74 µM
TGI (HCT-116 colon): 3.34 µM
GI50 (NCI-H460 lung): 2.37 µM
TGI (NCI-H460 lung): 8.38 µM
GI50 (A549 NSCLC): 1.87 µM
TGI (A549 NSCLC): 3.86 µM
GI50 (NCI-H522 lung): 1.84 µM
TGI (NCI-H522 lung): 3.54 µM
GI50 (SK-MEL-28 melanoma): 2.19 µM
TGI (SK-MEL-28 melanoma): 5.66 µM
GI50 (SW-620 colon): 3.41 µM
TGI (SW-620 colon): 10.4 µM

Source: PubChem BioAssay (NCI)
